From publication PMC5766609 (Scientific Reports, 2018) come the findings set out here.

As usually defined, the EC50 is the concentration needed to bring the measured effect to its halfway point.

The structures appear in SMILES notation. Residues, ends and D or L forms follow the SMILES beside them.

The target in test [1] is T1, human GLP-1 receptor (GLP1R) (Homo sapiens, UniProt P43220).
T1 construct: expressed in transfected cells; host or cells: CHO-JumpIn cells, stably transfected
In words: cAMP assay on CHO-JumpIn cells stably transfected with human GLP-1 receptor (HitHunter cAMP).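 Also: peptides tested as 4-fold serial dilution series, cells exposed 1 hr at RT in the dark, cAMP quantified against a cAMP standard calibration curve.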 The test is classed as cell-based. As to conditions: Table 2, cAMP accumulation, buffer PBS, 0.1% BSA, 100 μM RO 20-1724, 20% serum, 1 hr at RT, value ± spread, read-out: EC50 GLP1R. A general note: Changes in cAMP serve as a functional read-out for many G protein-coupled receptors.
Description: (§1) Briefly, a 2 μM solution of peptide was prepared, and 4-fold serial dilutions were made. 150 nL of the above titration was then dispensed into an Optiplate384 using an Echo555. […] The HitHunter® cAMP Assay kit calibration curve was prepared following the manufacturer’s protocol (DiscoveRx-90-0075L). 30,000 cells/well were added to the peptides, spun briefly at 500 rpm for 15 s and incubated at RT in the dark for 1 hr. The assay was developed as per the manufacturer’s instructions. cAMP accumulation due to GLP1R agonism or GCGR agonism was measured using an EnVision platereader (PerkinElmer), and calibrated using the cAMP standard curve. Data were analyzed using Assay Data Analyzer (ADA).

Test [2] has as its target T2, human glucagon receptor (GCGR) (Homo sapiens, UniProt P47871).
T2 construct: expressed in transfected cells; host or cells: CHO-JumpIn cells, stably transfected
In words: cAMP assay on CHO-JumpIn cells stably transfected with human glucagon receptor (HitHunter cAMP).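 Also: peptides tested as 4-fold serial dilutions starting from a 2 µM solution, cells exposed 1 hr at RT in darkness, cAMP quantified against a cAMP standard curve.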 The test is classed as cell-based. As to conditions: Table 2; cAMP accumulation, CHO-JumpIn cells with human GCGR, buffer PBS, 0.1% BSA, 100 μM RO 20-1724, 20% serum; 1 hr at RT; value ± spread; read-out: EC50 GCGR.
Description: as §1

T2 sequence (P47871 26-477): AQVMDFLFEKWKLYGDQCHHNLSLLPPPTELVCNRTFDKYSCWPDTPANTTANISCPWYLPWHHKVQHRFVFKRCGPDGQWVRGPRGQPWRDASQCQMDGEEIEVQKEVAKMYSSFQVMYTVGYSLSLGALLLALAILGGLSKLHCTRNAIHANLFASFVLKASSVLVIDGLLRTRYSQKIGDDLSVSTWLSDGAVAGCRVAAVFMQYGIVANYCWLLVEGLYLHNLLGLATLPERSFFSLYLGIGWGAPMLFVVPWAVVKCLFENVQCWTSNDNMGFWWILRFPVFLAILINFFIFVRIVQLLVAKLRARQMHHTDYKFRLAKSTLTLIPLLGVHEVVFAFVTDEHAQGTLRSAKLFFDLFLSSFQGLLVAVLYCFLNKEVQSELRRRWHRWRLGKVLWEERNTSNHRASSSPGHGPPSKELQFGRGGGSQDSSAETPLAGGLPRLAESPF
T1 sequence (P43220 24-463): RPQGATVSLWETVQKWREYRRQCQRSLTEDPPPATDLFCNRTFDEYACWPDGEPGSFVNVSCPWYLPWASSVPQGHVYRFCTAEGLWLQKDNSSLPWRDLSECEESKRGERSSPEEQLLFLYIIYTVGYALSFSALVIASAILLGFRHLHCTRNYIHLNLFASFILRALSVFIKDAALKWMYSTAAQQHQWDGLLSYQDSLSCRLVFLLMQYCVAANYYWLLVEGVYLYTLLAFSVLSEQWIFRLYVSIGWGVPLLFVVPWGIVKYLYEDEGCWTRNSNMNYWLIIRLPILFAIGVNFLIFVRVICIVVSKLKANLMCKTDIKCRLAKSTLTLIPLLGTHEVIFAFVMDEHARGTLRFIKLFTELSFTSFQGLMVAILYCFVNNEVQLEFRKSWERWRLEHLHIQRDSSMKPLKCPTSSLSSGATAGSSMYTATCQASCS

With `CSCC[C@H](NC(=O)[C@H](CC(C)C)NC(=O)[C@H](CO)NC(=O)[C@H](CC(=O)O)NC(=O)[C@H](CC(C)C)NC(=O)[C@H](Cc1ccc(O)cc1)NC(=O)[C@H](CCCCN)NC(=O)[C@H](CO)NC(=O)[C@H](Cc1ccc(O)cc1)NC(=O)[C@H](CC(=O)O)NC(=O)[C@H](CO)NC(=O)[C@@H](NC(=O)[C@H](Cc1ccccc1)NC(=O)[C@@H](NC(=O)CNC(=O)[C@H](CCC(N)=O)NC(=O)[C@H](CO)NC(=O)[C@@H](N)Cc1c[nH]cn1)[C@@H](C)O)[C@@H](C)O)C(=O)N[C@@H](C)C(=O)N[C@@H](CCC(N)=O)C(=O)N[C@@H](CC(=O)O)C(=O)N[C@@H](Cc1ccccc1)C(=O)N[C@H](C(=O)N[C@@H](CCC(N)=O)C(=O)N[C@@H](Cc1c[nH]c2ccccc12)C(=O)N[C@@H](CC(C)C)C(=O)N[C@@H](CCSC)C(=O)N[C@@H](CO)C(=O)N[C@H](C(N)=O)[C@@H](C)O)C(C)C` [Peptide 5] (H-HSQGTFTSDYSKYLDSLMAQDFVQWLMST-NH2), the EC50 in test [1] amounted to 0.133 ± 0.032 nM; in test [2], 0.025 ± 0.001 nM.
For the compound `CC(C)C[C@H](NC(=O)[C@H](Cc1ccc(O)cc1)NC(=O)[C@H](CCCCN)NC(=O)[C@H](CO)NC(=O)[C@H](Cc1ccc(O)cc1)NC(=O)[C@H](CC(=O)O)NC(=O)[C@H](CO)NC(=O)[C@@H](NC(=O)[C@H](Cc1ccccc1)NC(=O)[C@@H](NC(=O)CNC(=O)[C@H](CCC(N)=O)NC(=O)[C@H](CO)NC(=O)[C@@H](N)Cc1c[nH]cn1)[C@@H](C)O)[C@@H](C)O)C(=O)N[C@@H](CC(=O)O)C(=O)N[C@@H](Cc1c[nH]c2ccccc12)C(=O)N[C@@H](CCCNC(=N)N)C(=O)N[C@@H](CCCNC(=N)N)C(=O)N[C@@H](C)C(=O)N[C@@H](CCC(N)=O)C(=O)N[C@@H](CC(=O)O)C(=O)N[C@@H](Cc1ccccc1)C(=O)N[C@H](C(=O)N[C@@H](CCC(N)=O)C(=O)N[C@@H](Cc1c[nH]c2ccccc12)C(=O)N[C@@H](CC(C)C)C(=O)N[C@@H](CC(C)C)C(=O)N[C@@H](CC(N)=O)C(=O)N[C@H](C(N)=O)[C@@H](C)O)C(C)C` [Peptide 6], the results for the concentration giving a half-maximal response (EC50) in test [1] and in test [2] were 0.063 ± 0.034 nM and 0.032 ± 0.013 nM, respectively.
Consider `CC[C@H](C)[C@H](NC(=O)[C@H](Cc1ccc(O)cc1)NC(=O)[C@H](CC(=O)O)NC(=O)[C@H](CO)NC(=O)[C@@H](NC(=O)[C@H](Cc1ccccc1)NC(=O)[C@@H](NC(=O)CNC(=O)[C@H](CCC(N)=O)NC(=O)[C@H](CO)NC(=O)[C@@H](N)Cc1c[nH]cn1)[C@@H](C)O)[C@@H](C)O)C(=O)N[C@@H](CCCCN)C(=O)N[C@@H](CC(C)C)C(=O)N[C@@H](CC(C)C)C(=O)N[C@@H](CC(=O)O)C(=O)N[C@@H](CO)C(=O)N[C@@H](CCCNC(=N)N)C(=O)N[C@@H](CCCNC(=N)N)C(=O)N[C@@H](C)C(=O)N[C@@H](CCC(N)=O)C(=O)N[C@@H](CC(=O)O)C(=O)N[C@@H](Cc1ccccc1)C(=O)N[C@H](C(=O)N[C@@H](CCC(N)=O)C(=O)N[C@@H](Cc1c[nH]c2ccccc12)C(=O)N[C@@H](CC(C)C)C(=O)N[C@@H](CCSC)C(=O)N[C@@H](CC(N)=O)C(=O)N[C@H](C(N)=O)[C@@H](C)O)C(C)C` [Peptide 7] (H-HSQGTFTSDYIKLLDSRRAQDFVQWLMNT-NH2), for which the EC50 was found to be 78.3 ± 93.8 nM in test [1] and 0.301 ± 0.216 nM in test [2].
On the same counts, the results for `CC[C@H](C)[C@H](NC(=O)[C@H](CC(C)C)NC(=O)[C@H](Cc1c[nH]c2ccccc12)NC(=O)[C@H](CCC(N)=O)NC(=O)[C@@H](NC(=O)[C@H](Cc1ccccc1)NC(=O)[C@H](CC(=O)O)NC(=O)[C@H](CCC(N)=O)NC(=O)[C@H](C)NC(=O)[C@H](CCCNC(=N)N)NC(=O)[C@H](CCCNC(=N)N)NC(=O)[C@H](C)NC(=O)[C@H](CC(=O)O)NC(=O)[C@H](CC(C)C)NC(=O)[C@H](Cc1ccc(O)cc1)NC(=O)[C@H](CCCCN)NC(=O)[C@H](CO)NC(=O)[C@H](Cc1ccc(O)cc1)NC(=O)[C@H](CC(=O)O)NC(=O)[C@H](CO)NC(=O)[C@@H](NC(=O)[C@H](Cc1ccccc1)NC(=O)[C@@H](NC(=O)CNC(=O)[C@H](CCC(N)=O)NC(=O)[C@H](CO)NC(=O)[C@@H](N)Cc1c[nH]cn1)[C@@H](C)O)[C@@H](C)O)C(C)C)C(=O)N[C@@H](CCCNC(=N)N)C(=O)N[C@H](C(N)=O)[C@@H](C)O` [Peptide 8] are 0.017 ± 0.001 nM and 0.038 ± 0.01 nM.
`CSCC[C@H](NC(=O)[C@H](CC(C)C)NC(=O)[C@H](Cc1c[nH]c2ccccc12)NC(=O)[C@H](CCC(N)=O)NC(=O)[C@@H](NC(=O)[C@H](Cc1ccccc1)NC(=O)[C@H](CC(=O)O)NC(=O)[C@H](Cc1ccc(O)cc1)NC(=O)[C@H](C)NC(=O)[C@H](CCCNC(=N)N)NC(=O)[C@H](CC(C)C)NC(=O)[C@H](CCC(=O)O)NC(=O)[C@H](CC(=O)O)NC(=O)[C@H](CC(C)C)NC(=O)[C@H](Cc1ccc(O)cc1)NC(=O)[C@H](CCCCN)NC(=O)[C@H](CO)NC(=O)[C@H](Cc1ccc(O)cc1)NC(=O)[C@H](CC(=O)O)NC(=O)[C@H](CO)NC(=O)[C@@H](NC(=O)[C@H](Cc1ccccc1)NC(=O)[C@@H](NC(=O)CNC(=O)[C@H](CCC(N)=O)NC(=O)[C@H](CO)NC(=O)[C@@H](N)Cc1c[nH]cn1)[C@@H](C)O)[C@@H](C)O)C(C)C)C(=O)N[C@@H](CC(N)=O)C(=O)N[C@H](C(N)=O)[C@@H](C)O` [Peptide 10] (H-HSQGTFTSDYSKYLDELRAYDFVQWLMNT-NH2): the EC50 turned out to be 0.038 ± 0.009 nM in test [1] and 0.057 ± 0.021 nM in test [2].
For the compound `CC(C)C[C@H](NC(=O)[C@H](Cc1ccc(O)cc1)NC(=O)[C@H](CCCCN)NC(=O)[C@H](CO)NC(=O)[C@H](Cc1ccc(O)cc1)NC(=O)[C@H](CC(=O)O)NC(=O)[C@H](CO)NC(=O)[C@@H](NC(=O)[C@H](Cc1ccccc1)NC(=O)[C@@H](NC(=O)CNC(=O)[C@H](CCC(N)=O)NC(=O)[C@H](CO)NC(=O)[C@@H](N)Cc1c[nH]cn1)[C@@H](C)O)[C@@H](C)O)C(=O)N[C@@H](CC(=O)O)C(=O)N[C@@H](CO)C(=O)N[C@@H](CCCNC(=N)N)C(=O)N[C@@H](CCCNC(=N)N)C(=O)N[C@@H](C)C(=O)N[C@@H](Cc1c[nH]cn1)C(=O)N[C@@H](CC(=O)O)C(=O)N[C@@H](Cc1ccccc1)C(=O)N[C@H](C(=O)N[C@@H](CCC(N)=O)C(=O)N[C@@H](Cc1c[nH]c2ccccc12)C(=O)N[C@@H](CC(C)C)C(=O)N[C@@H](CC(C)C)C(=O)N[C@@H](CC(N)=O)C(=O)N[C@H](C(N)=O)[C@@H](C)O)C(C)C` [Peptide 11] (H-HSQGTFTSDYSKYLDSRRAHDFVQWLLNT-NH2), the values for the EC50 in test [1] and in test [2] were 0.018 ± 0.001 nM and 0.018 ± 0.005 nM, respectively.
`CC[C@H](C)[C@H](NC(=O)[C@H](CC(C)C)NC(=O)[C@H](Cc1c[nH]c2ccccc12)NC(=O)[C@H](CCC(N)=O)NC(=O)[C@@H](NC(=O)[C@H](Cc1ccccc1)NC(=O)[C@H](CC(=O)O)NC(=O)[C@H](CCC(N)=O)NC(=O)[C@H](C)NC(=O)[C@H](CCCNC(=N)N)NC(=O)[C@H](CCCNC(=N)N)NC(=O)[C@H](CO)NC(=O)[C@H](CC(=O)O)NC(=O)[C@H](CC(C)C)NC(=O)[C@H](Cc1ccc(O)cc1)NC(=O)[C@H](CCCCN)NC(=O)[C@H](CO)NC(=O)[C@H](Cc1ccc(O)cc1)NC(=O)[C@H](CC(=O)O)NC(=O)[C@H](CO)NC(=O)[C@@H](NC(=O)[C@H](Cc1ccccc1)NC(=O)[C@@H](NC(=O)CNC(=O)[C@H](CCC(N)=O)NC(=O)[C@H](CO)NC(=O)[C@@H](N)Cc1c[nH]cn1)[C@@H](C)O)[C@@H](C)O)C(C)C)C(=O)N[C@@H](CC(N)=O)C(=O)N[C@@H](Cc1ccc(O)cc1)C(N)=O` [Peptide 13]: the figures for the concentration giving a half-maximal response (EC50) in test [1] and in test [2] were 0.039 ± 0.008 nM and 0.078 ± 0.05 nM, respectively.
